System: Human lung epithelial cell line and lung cancer cell lines
Experiment: cell cultivation in TMGG (tolerance)
Format: cell-based
Conditions: cultivated in 0.01˜3.0M TMGG with all necessary supplements, up to 48 hours
Protocol: Human lung epithelial cell line and lung cancer cell lines were purchased from ATCC and cultivated according to manufacturer's protocols at 37° C. under 5% CO2. Cells were passaged at about 50%-70% confluence by exposing the cells to trypsin/EDTA for about 1 min and then rinsing two times in HBSS containing trypsin inhibitor. The detached cells were replated at 1:5 dilutions in fresh EpiLife medium with HKGS supplements. For miRNA transfection, pri-/pre-miR-302 prepared from Example 1 was dissolved in 0.01˜5.0M, preferably 0.1˜2.0M, of TMGG solution at a desired concentration up to 5 mg/ml and then directly applied to cell culture medium based on the miRNA amount needed. For example, to deliver […] pri-/pre-miR-302, we would need to add 40 μl of the TMGG-dissolved pri-/pre-miR-302 (at 5 mg/ml) into the cell culture medium and then mix well with the cells.

trimethylglycylglycerins [TMGG]
adverse effect on cultivated cells: not showing any adverse effect

— patent US11326164B2, “Trimethylglycylglycerin compositions and their use in developing anti-cancer drugs and RNA vaccines” (WJWU & LYNN Institute for Stem Cell Research, priority 2019, dated 2022)
